SMILES strings stand for the structures.

This assay has as its target T1, ROR gamma ligand-binding domain (LBD) (hRORg) (Homo sapiens, UniProt P51449).
T1 construct: expressed in transfected cells; host or cells: HG5LN (HeLa line with GAL4-responsive luciferase reporter)
T1 sequence (P51449 269-508 limits assumed): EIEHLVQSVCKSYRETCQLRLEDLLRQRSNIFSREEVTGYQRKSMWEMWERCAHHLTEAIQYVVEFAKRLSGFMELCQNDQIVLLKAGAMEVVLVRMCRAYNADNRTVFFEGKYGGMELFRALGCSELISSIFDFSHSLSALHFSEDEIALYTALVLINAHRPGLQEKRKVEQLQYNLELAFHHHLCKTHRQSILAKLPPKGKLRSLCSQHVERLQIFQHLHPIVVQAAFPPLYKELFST
As to the kind of experiment: GAL4-RORγ transactivation (luciferase reporter, HG5LN HeLa line). Format: cell-based. To be noted: HG5LN HeLa line with GAL4 DBD fused to ROR gamma LBD, 18 hours incubation. The source says: GAL4—RORγ Transactivation
The RORγ transactivation model was developed from the line HG5LN, which is a HeLa line that stably expresses a luciferase reporter gene controlled by a pentamer of the GAL4 recognition domain of yeast and of a β-globin promoter. The HG5LN line was stably transfected by the DNA-binding domain (DBD) of GAL4 fused to the ROR gamma ligand-binding domain (LBD). Molecules that inhibit the ROR gamma constitutive activity reduce the luciferase expression, thus leading to a reduction in the emitted luminescence.
The cells are seeded in 384-well plates (5000 cells in 45 μL/well of culture medium containing 10% fetal calf serum) and incubated for 4 hours at 37° C., 5% CO2. 5 μL of the test molecules (compounds described in the tables described above) are then added to each well and the plates are incubated for 18 hours at a temperature of 37° C. under 5% of CO2. 20 μL of luciferase substrate (Promega) are added to each well and the luminescence emitted is read by a microplate reader.
The luminescence units (“RLU”) are normalized by positive controls (“POS” containing a saturated concentration of N-(2,2,2-trifluoroethyl)-N-[4-[2,2,2-trifluoro-1-hydroxy-1-(trifluoromethyl)ethyl]phenyl])benzenesulfonamide and negative controls (“NEG” containing DMSO): % inhibition=((RLU-NEG)*100)/(POS-NEG). The IC50 values are calculated from a 4-parameter logistic model using the XLFit software (IDBS).
The IC50 is the midpoint of a concentration-inhibition curve. Turning to `CCc1ccc(N(CC(C)C)S(=O)(=O)c2ccc3c(c2)C(O)CCN3CC2CCC(O)CC2)cc1` (single isomer, unassigned) [Compound 42, 4-hydroxy-1-(4-hydroxycyclohexylmethyl)-1,2,3,4-tetrahydroquinoline-6-sulfonic acid (4-ethylphenyl)isobutylamide], the half-inhibitory concentration (IC50) fell in the range of 100 to 1000 nM. The result for `CCc1ccc(N(CC(C)C)S(=O)(=O)c2ccc3c(c2)C(O)CCN3CC2CCC(O)CC2)cc1` (single isomer, unassigned) [Compound 43, 4-hydroxy-1-(4-hydroxycyclohexylmethyl)-1,2,3,4-tetrahydroquinoline-6-sulfonic acid (4-ethylphenyl)isobutylamide] reads 100 to 1000 nM; that for `CCc1ccc(N(CC(C)C)S(=O)(=O)c2ccc3c(c2)C(O)CCN3C2CCNC(=O)C2)cc1` (single isomer, unassigned) [Compound 52, 4-hydroxy-1-(2-oxopiperidin-4-yl)-1,2,3,4-tetrahydroquinoline-6-sulfonic acid (4-ethylphenyl)isobutylamide], greater than 1000 nM; that for `CCc1ccc(N(CC(C)C)S(=O)(=O)c2ccc3c(c2)C(O)CCN3C2CCNC(=O)C2)cc1` (single isomer, unassigned) [Compound 53, 4-hydroxy-1-(2-oxopiperidin-4-yl)-1,2,3,4-tetrahydroquinoline-6-sulfonic acid (4-ethylphenyl)isobutylamide], greater than 1000 nM. With `CCc1ccc(N(CC(C)C)S(=O)(=O)c2ccc3c(c2)C(=O)CCN3CC2CCC(=O)N2)cc1` (centres unmarked) [Compound 3, 4-oxo-1-(5-oxopyrrolidin-2-ylmethyl)-1,2,3,4-tetrahydroquinoline-6-sulfonic acid (4-ethylphenyl)isobutylamide] the figure was greater than 1000 nM; with `CCc1ccc(N(CC(C)C)S(=O)(=O)c2ccc3c(c2)C(=O)CCN3CC2CCN(C(=O)OC(C)(C)C)CC2)cc1` [Compound 5, tert-butyl ester of 4-{6-[(4-ethylphenyl)isobutylsulfamoyl]-4-oxo-3,4-dihydro-2H-quinolin-1-ylmethyl}piperidine-1-carboxylic acid], greater than 1000 nM; with `CCc1ccc(N(CC(C)C)S(=O)(=O)c2ccc3c(c2)C(=O)CCN3CC2(C)CCOCC2)cc1` [Compound 6, 1-(4-methyltetrahydropyran-4-ylmethyl)-4-oxo-1,2,3,4-tetrahydroquinoline-6-sulfonic acid (4-ethylphenyl)isobutylamide], 100 to 1000 nM. The result for `CCc1ccc(N(CC(C)C)S(=O)(=O)c2ccc3c(c2)C(=O)CCN3CC2CCS(=O)(=O)CC2)cc1` [Compound 7, 1-(1,1-dioxohexahydro-1λ^6-thiopyran-4-ylmethyl)-4-oxo-1,2,3,4-tetrahydroquinoline-6-sulfonic acid (4-ethylphenyl)isobutylamide] reads greater than 1000 nM; that for `CCc1ccc(N(CC(C)C)S(=O)(=O)c2ccc3c(c2)C(=O)CCN3Cc2ccc(C(=O)NO)cc2)cc1` [Compound 8, 4-{6-[(4-ethylphenyl)isobutylsulfamoyl]-4-oxo-3,4-dihydro-2H-quinolin-1-ylmethyl}-N-hydroxybenzamide], greater than 1000 nM.

The compound `CCc1ccc(N(CC(C)C)S(=O)(=O)c2ccc3c(c2)C(O)CCN3CC2CCC(=O)N2)cc1` (centres unmarked) [Compound 9, 4-hydroxy-1-(5-oxopyrrolidin-2-ylmethyl)-1,2,3,4-tetrahydroquinoline-6-sulfonic acid (4-ethylphenyl)isobutylamide] displayed an IC50 of 100 to 1000 nM. With `CCc1ccc(N(CC(C)C)S(=O)(=O)c2ccc3c(c2)C(O)CCN3CC2CCN(C(=O)OC(C)(C)C)CC2)cc1` (centres unmarked) [Compound 12, tert-butyl ester of 4-{6-[(4-ethylphenyl)isobutylsulfamoyl]-4-hydroxy-3,4-dihydro-2H-quinolin-1-ylmethyl}piperidine-1-carboxylic acid] the figure was greater than 1000 nM.

For the origin of these results see patent US10550110B2, “Tetrahydroquinoline sulfonamide derivatives as inverse agonists of retinoid-related orphan receptor gamma (ROR gamma (t))” (GALDERMA RESEARCH & DEVELOPMENT, priority 2014, dated 2020).
